In patent US7102027B2, “Adamantanetricarboxylic acid derivatives” (Daicel Chemical Industries, Ltd., priority 2003, dated 2006):
Where two headings read alike, the source gives them in different places.

Experiment: Dissolution of monomer components in mesitylene to prepare a coating liquid
Format: physicochemical
Procedure: In 100 g of mesitylene were dissolved 2.48 g (8 mmol) of trimethyl ester of 1,3,5-adamantanetricarboxylic acid prepared in Example 1 and 6.42 g (12 mmol) of 3,3′-diaminobenzidinetetracyclohexanoimine [N,N′,N″,N′″-tetracyclohexylidene-3,4,3′,4′-biphenyltetramine] prepared in Preparation Example 1 at room temperature in a nitrogen atmosphere, to yield a coating liquid having a monomer concentration of 8.2% by weight. After filtrating through a filter with a pore size of 0.1 μm, the coating liquid was applied to an 8-inch silicon wafer by spin coating. This was heated at 300° C. in a nitrogen atmosphere for 30 minutes and was then heated at 400° C. for further 30 minutes, to form a film. The infrared absorption spectrum of the resulting polymer film was determined. The result is shown in FIG. 1, verifying that the target crosslinked polybenzazole film was formed.
A coating liquid was prepared by the procedure of Example • 7, except using equal amounts of • 1,3,5-adamantanetricarboxylic acid and • 3,3′-diaminobenzidine instead of trimethyl ester of • 1,3,5-adamantanetricarboxylic acid and • N,N′,N″,N′″-tetracyclohexylidene-3,4,3′,4′-biphenyltetramine, respectively. […] The infrared absorption spectrum of the resulting polymer film was determined, verifying that the target crosslinked polybenzazole film was formed.

solubility in the solvent (mesitylene)	SMILES	solubility in the solvent (mesitylene) (procedure of Example 7: 8 mmol acid and 12 mmol amine together in 100 g mesitylene, room temperature, nitrogen atmosphere)
not sufficiently dissolved	O=C(O)C12CC3CC(C(=O)O)(C1)CC(C(=O)O)(C3)C2 [1,3,5-adamantanetricarboxylic acid]	–
–	Nc1ccc(-c2ccc(N)c(N)c2)cc1N [3,3′-diaminobenzidine]	not sufficiently dissolved
